Here are results for 1 compound from ChEMBL document CHEMBL1159152, “A novel bromopyrrole alkaloid from the sponge Agelas longissima with antiserotonergic activity” (Bioorg Med Chem Lett, 1995).

For one assay, the species on record is Rattus norvegicus. The assay is described as follows: In vitro antiserotonergic activity on rat stomach fundus strip. The class given is functional.
For assay [1], the target named is Serotonin (5-HT) receptor. In words: Affinity against 5-hydroxytryptamine receptor was determined. The assay is classed as protein assay, Rattus norvegicus.

For the compound `O=C([O-])c1ccc[n+](CCOC(=O)c2cc(Br)c[nH]2)c1`, in the assay filed under Rattus norvegicus, half-maximal inhibition (IC50) required 80 µM. The same compound registered a pA2 in assay [1] of 6.2.

The IC50 is the concentration at which inhibition is half-maximal. A high value points to a need for much substance. For orientation: pA2 means a measure of antagonist potency on a negative log scale. Read a high pA2 as higher antagonist potency.
